Experimental findings from patent US8865229B2, “Marrubiin and composition for reducing snoring, package and method” (Puranox Medical B.V., priority 2005, dated 2014) are described below.

The experiment concerns snoring of a treated person. Description: anti-snoring effect when applied in the pharynx via the mouth. Type of experiment: in vivo. The following applies: active component; test details not given. An excerpt:
The invention provides for this purpose a composition for reducing snoring, comprising at least an active quantity of at least one active component with astringent properties and a physiologically acceptable excipient. Such a composition is preferably applied in the pharynx. […] The composition according to the invention can be applied usefully not only in the domestic domain but also in professional situations where a plurality of people must necessarily sleep in the same space, such as in a dormitory, a hospital or military barracks. […] All formulations are based on water: the shown percentages by weight are thus supplemented to 100% with water. Composition A is a liquid composition which can be used for applying with a spray or as droplets. Composition B is a gel formulation. Composition C is a foam.

As for `C[C@@H]1C[C@H]2OC(=O)[C@@]3(C)CCC[C@@](C)([C@@H]23)[C@@]1(O)CCc1ccoc1` [Marrubiin, 6-(2-furan-3-yl-ethyl)-6-hydroxy-2a,5a,7-trimethyldekahydronafto[1,8-bc]furan-2-on], the “anti-snoring effect / effects on the level of snoring of a treated person” value was “particularly good anti-snoring effect”.
